The test system of data set [1] is pregnant rats (term delivery). The experiment in a line: Delay of term delivery in pregnant rats. Type of data set: in vivo, Sprague-Dawley rats. The source says: Timed-pregnant Sprague-Dawley rats (200-250 g) from Charles-River Laboratories (Wilmington, Mass., USA) were delivered to our animal care facilities on day 15 of gestation (day 1 being the day when a sperm plug was observed). The animals were housed separately, with free access to food and water and maintained on a constant 12-hour light-dark cycle. Control pregnant rats were spontaneously delivering on day 22 of gestation. The animals were randomly allocated into groups and sacrificed by carbon dioxide inhalation on day 5 postpartum or on day 25 of gestation in the groups with delayed delivery.
Pregnant rats (N=6 per group) were treated, when not otherwise mentioned, from day 20 of gestation until delivery. Single daily treatments were performed at 8 am and twice a day treatments at 8 am and 8 pm. Treatment began daily on day 20 of gestation with vehicles or: a) Topical P4 at various doses (4-30 mg/day, vehicle (v)=fish oil) or topical TMG ([…], v=fish oil; b) Subcutaneous (s.c.) P4 (0.5-4 mg/day, v=sesame oil) or s.c. TMG (0.5-2 mg/day, v=benzyl benzoate (BB) and castor oil (CO), 1:4). Delivery times were observed.
Subcutaneous treatments. All daily injections were by the subcutaneous route (s.c) in […] for the P4 treatments and benzyl benzoate (BB, 1 part): castor oil (CO, 4 parts) for the TMG group. P4 and TMG had dose ranges of 0.5 mg-4 mg per day and 0.5 mg-2 mg per day, respectively. Vehicles only are used in the control groups.
Topical treatments. Topical P4 and TMG (in fish oil and benzyl benzoate:castor oil (1:4), respectively) treatments were applied to the shaved back of the rat twice a day For topical treatments of P4 and TMG, dose range from 2 mg-30 mg per day and 0.005 to 0.5 mg per day, respectively.
Times of delivery of controls and treatment groups were determined as hours after 8 a.m. on day 22 of gestation. […] Delays in delivery less than 80 hours were calculated as less than 100% inhibition. The expulsion of a single pup was noted as delivery. Control groups spontaneously delivered on day 22 of gestation.
The Student's t test was used to compare the treatment groups with its specific control groups to determine the differences in delivery times. A 2-tailed probability value of P<0.05 was considered statistically significant.

In data set [2] the test system is rat pups of treated pregnant rats. Nature of the data set: Sex of pups / fetuses of TMG-treated pregnant rats. Type of data set: in vivo. The procedure:
To determine the effects of TMG on progeny sex ratios, pregnant rats (N=9 per group) were treated daily beginning on day 13 of gestation with TMG (in benzyl benzoate+castor oil, vehicle) or with vehicle only. […] Pups were then placed with surrogate mother also on day 22 of gestation whose pups were sacrificed.
As described, the sex of the pups was evaluated 21 days post-partum by examining external genitalia as well as distance between rectum and genitalia.

For data set [3], the system named is offspring of TMG-treated rats. The experiment in a line: Fertility of offspring of TMG-treated pregnant rats. Format: in vivo, rat. The note with it: offspring bred at 5 months with untreated partners, n=6 per sex. The source says: To determine the effects of TMG on fertility the following procedure was followed. When pups from TMG-treated pregnant rats were of breeding age (5 months) the females were placed with normal (untreated) males for 6 days. Similarly, male pups from TMG-treated rats were placed with normal (untreated) females for 6 days.

Data set [4] relates to pregnant guinea pigs (preterm delivery). The experiment in a line: PGE2-induced preterm delivery in pregnant guinea pigs. Type of data set: in vivo, Hartley guinea pigs. The note with it: sacrifice day 48. The source says:
Pregnant guinea pigs, another model of pregnancy are also utilized as they more closely resemble the endocrine control of human pregnancy with progesterone levels in pregnancy maintained by the placenta as opposed to the ovaries, which is observed in pregnant rats.
Pregnant Hartley guinea pigs arrived at our facilities at 31-35 days gestation and housed in pairs, with free access to food and water and also maintained on a constant 12-hour light-dark cycle. The animals were euthanized with a combination of xylazine (Gemini; Burns Veterinary Supply Inc, Rockville Center, N.Y.) and ketamine HCL (Ketaset; Fort Dodge Laboratories Inc, Fort Dodge, Iowa). All procedures were approved by the Animal Care and Use Committee of the St. Joseph's Hospital and Medical Center in Phoenix, Ariz.
Pregnant guinea pigs (N=4-6 per group) were allocated into 4 groups (Vehicle (v) only, TMG only, PGE2 only, PGE2+TMG). PGE2 administration (3 mg/day s.c, v=saline) began daily on day 46 to day 47 of gestation. TMG administration (4 mg/day s.c v=BB:CO) began daily on day 44 until day 47 of gestation. All guinea pigs were sacrificed on day 48.

Data set [5] addresses T1, progesterone receptor (PR) (Homo sapiens, UniProt P06401).
T1 sequence (P06401 1-933): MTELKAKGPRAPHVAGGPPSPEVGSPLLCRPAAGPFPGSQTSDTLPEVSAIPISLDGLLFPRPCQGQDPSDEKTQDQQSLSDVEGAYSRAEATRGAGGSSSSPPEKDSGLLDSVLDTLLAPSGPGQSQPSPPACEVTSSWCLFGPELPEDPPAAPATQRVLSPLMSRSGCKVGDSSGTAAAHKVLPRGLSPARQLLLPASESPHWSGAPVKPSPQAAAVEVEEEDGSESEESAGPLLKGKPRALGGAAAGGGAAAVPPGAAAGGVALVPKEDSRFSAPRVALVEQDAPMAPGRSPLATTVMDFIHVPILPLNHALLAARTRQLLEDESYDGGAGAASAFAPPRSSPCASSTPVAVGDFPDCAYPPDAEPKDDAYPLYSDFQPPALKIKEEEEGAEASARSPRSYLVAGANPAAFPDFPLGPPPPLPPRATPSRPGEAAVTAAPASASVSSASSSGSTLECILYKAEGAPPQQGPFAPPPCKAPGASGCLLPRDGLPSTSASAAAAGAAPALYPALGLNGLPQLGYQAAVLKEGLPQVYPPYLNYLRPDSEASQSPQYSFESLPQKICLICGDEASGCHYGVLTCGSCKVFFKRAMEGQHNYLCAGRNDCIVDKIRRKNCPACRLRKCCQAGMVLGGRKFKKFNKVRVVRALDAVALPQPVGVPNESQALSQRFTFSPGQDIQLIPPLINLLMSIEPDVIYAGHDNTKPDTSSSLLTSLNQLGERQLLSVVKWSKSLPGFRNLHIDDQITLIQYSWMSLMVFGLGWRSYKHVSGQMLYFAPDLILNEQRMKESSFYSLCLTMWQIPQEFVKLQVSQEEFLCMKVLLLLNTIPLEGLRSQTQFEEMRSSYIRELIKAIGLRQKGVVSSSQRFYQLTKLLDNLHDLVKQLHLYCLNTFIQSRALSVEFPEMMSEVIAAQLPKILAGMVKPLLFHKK
The note with it: cited from earlier work.

[6] abbreviates: pregnant rats, s.c. single daily treatment from day 20 of gestation.

“And” between values parts separate entries of the source, which are not always exact repeats. Identical values can stand only once. “Also recorded” adds a separate entry of the source.

On to `C[C@H](O)C(=O)[C@@]1(C)CC[C@H]2[C@@H]3CCC4=CC(=O)CCC4=C3CC[C@@]21C` [TMG, trimegestone], for which, in data set [1] (setting [6]), the “dose for complete block of delivery (80 hour delay, 100 percent inhibition), subcutaneous” value came to 0.5 mg and the “dose for complete block of delivery, subcutaneous” value is 0.5 mg/day. Also, the “lower dose for complete block of term delivery compared to P4, subcutaneous” value in data set [1] (pregnant rats, s.c., 0.5 mg TMG vs. 2 mg P4, P<0.05) was “ca. 4 ×”. The “dose for complete block of delivery, topical” value in data set [1] (pregnant rats, topical twice a day from day 20 of gestation) turned out to be 0.1 mg/day. The “lower dose for complete block of term delivery compared to P4, topically” value in data set [1] (pregnant rats, topical, 0.5 mg TMG vs. 15 mg P4, P<0.05) is “ca. 30 ×”. Besides, in data set [1] (topical and parenteral administration), the “potency in delaying delivery in rats compared to P4” value was “more potent than P4”. For the same compound, the “masculinizing or feminizing effects on the fetuses” value in data set [2] (fetuses of treated rats, treatment from day 13 of pregnancy) is recorded as “lacks masculinization or feminization effects; also recorded: no masculinizing or feminizing effects”. Besides, in data set [2] (pregnant rats treated from day 13 of gestation, N=9), the “ratio of male to female pups versus vehicle control” value is reported as “no significant difference; also recorded: non-significant differences”. The “fertility of male and female offspring of treated rats” value in data set [3] is recorded as “not compromised”. Moreover, the “guinea pigs delivered (preterm) / treated, substance alone” value in data set [4] (TMG 4 mg/day s.c. days 44-47, PGE2 3 mg/day days 46, 47) is reported as 1/4. Also, the “guinea pigs delivered (preterm) / treated, TMG plus PGE2” value in data set [4] (TMG 4 mg/day s.c. days 44-47 and PGE2 3 mg/day days 46-47) is “None and 2/6”. For the same compound, in data set [5], the “relative binding affinity (RBA) for TMG-PR interactions” value is recorded as 588. In data set [5] (relative to P4), the “affinity for progesterone receptor (PR), higher than P4” value was 6 fold and the “potency, higher than P4” value was “approximately 6 times”. For the same compound, the “affinity for the human progesterone receptor, greater than progesterone (P4)” value in data set [5] (relative to P4, human progesterone receptor) was 6 times.

Source of the values: patent US9271991B2, “Trimegestone (TMG) for treatment of preterm birth” (Dignity Health, priority 2010, dated 2016).
